Reference: patent US20250214947A1, “3,4-DIHYDROQUINOXALINE-2-CARBOXIMIDE DERIVATIVE COMPOUND AND PHARMACEUTICAL COMPOSITION COMPRISING SAME FOR PREVENTING OR TREATING CANCER DISEASE” (Cureverse Incorporated, priority 2022, published 2025)

What was measured:
[1] = test system: PC-3 prostate cancer cells; assay: Prostate cancer cell growth inhibition, CCK-8 assay; format: cell-based, human; details: various concentrations; 24 hours and 48 hours; FIG. 1
Procedure: PC-3, a human-derived prostate cancer cell line, was cultured with RPMI1640 (10% fetal bovine serum, 1% Penicillin Streptomycin) culture medium at 37° C., 5% CO2 condition. All cells in the experiment were subcultured when they reached a confluency of approximately 80% to 90%, and only cells that had not passed 20 passages were used.
After culturing, 10 L CCK-8 reagent was added and the absorbance was measured after 1 hour. The absorbance was measured at 450 nm using a microplate reader [BMG Labtech (Offenburg, Germany)].

[2] = Body weight of mice during drug administration, liver cancer model; format: in vivo, nude mice; details: 50 mg/kg once a day; drug administration period; FIG. 7D
Procedure: In addition, a liver cancer model was established by subcutaneously transplanting Huh-7 cell lines into nude mice. After establishing the liver cancer model, the mice were divided into two groups (group 1: vehicle administration group, group 2: 50 mg/kg Example 27 compound administration group). The drug was administered once a day for 12 times. To evaluate therapeutic efficacy, tumor volume was measured before drug administration and on days 4, 7, 10, 13, and 15 after drug administration. Tumor volume (mm^3) was calculated as follows (tumor volume (mm^3)=(A×B^2)/2, where A=tumor long axis, B=tumor short axis). Body weight was measured before administration and on days 4, 7, 10, 13, and 15 after drug administration during the drug administration period. Tumor was excised on day 15 after drug treatment and body weight was measured.

[3] = Body weight of mice during drug administration, prostate cancer model; format: in vivo, nude mice; details: 50 mg/kg orally once a day; drug administration period; FIG. 5
Procedure: A prostate cancer model was established by subcutaneously transplanting PC-3 cell lines into nude mice, and the mice were divided into two groups (group 1: vehicle administration group (10% DSMO, 30% PEG400, 60% DW), group 2: 50 mg/kg Example 27 compound administration group). The drug was administered orally once a day for 12 times. To evaluate the therapeutic efficacy, tumors were […] before drug administration and on days 3, 6, 8, 10, 12, and 14 after drug administration, and tumor volumes were measured. Tumor volume (mm^3) was calculated as follows (tumor volume (mm^3)=(A×B^2)/2, where A=tumor long axis, B=tumor short axis), and the results are shown in FIG. 2.

[4] = target: T1, HDAC10 (Homo sapiens, UniProt Q969S8); assay: Selective inhibitory effect, HDAC Fluorogenic assay kit, HDAC10; details: read-out: HDAC10 enzyme activity (%)
T1 sequence (Q969S8 1-669): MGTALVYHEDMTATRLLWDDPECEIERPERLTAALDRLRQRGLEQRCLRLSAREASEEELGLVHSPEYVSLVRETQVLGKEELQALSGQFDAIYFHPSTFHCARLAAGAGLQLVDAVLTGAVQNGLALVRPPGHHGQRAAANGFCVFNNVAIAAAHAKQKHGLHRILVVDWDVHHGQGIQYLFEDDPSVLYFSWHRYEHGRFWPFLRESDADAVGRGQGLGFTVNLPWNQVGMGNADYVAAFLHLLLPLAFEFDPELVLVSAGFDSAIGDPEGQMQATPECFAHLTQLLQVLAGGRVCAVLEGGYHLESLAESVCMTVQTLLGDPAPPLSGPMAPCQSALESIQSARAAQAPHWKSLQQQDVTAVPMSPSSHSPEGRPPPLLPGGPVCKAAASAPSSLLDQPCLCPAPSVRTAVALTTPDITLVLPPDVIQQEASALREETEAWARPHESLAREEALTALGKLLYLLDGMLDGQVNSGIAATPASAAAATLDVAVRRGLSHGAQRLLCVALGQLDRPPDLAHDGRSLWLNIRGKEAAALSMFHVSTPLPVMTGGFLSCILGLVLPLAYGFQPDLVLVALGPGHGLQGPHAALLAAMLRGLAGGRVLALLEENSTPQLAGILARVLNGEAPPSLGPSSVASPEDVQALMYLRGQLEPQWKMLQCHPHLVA
Procedure: For analysis, HDAC substrate 3 was diluted in buffer to a concentration of 200 μM and used in HDAC 1, 2, 3, 6, and 10 assays, HDAC substrate 2A was diluted in buffer to a concentration of 200 μM and used in HDAC 4, 7, 9, and 11 assays, HDAC substrate 2A was diluted in buffer to a concentration of 20 μM and used in HDAC 8 assays. For the HDAC 11 assay, a dedicated buffer included in the kit was used separately, and the same buffer was used for the remaining assays. The compound of the Example was diluted to 1 mM (1% DMSO concentration) using DMSO to obtain a final concentration of 10 μM, and prepared by diluting 1/10 with assay buffer. In a 96-well black round-bottom plate, 5 μL of the diluted compound of the Example, 5 μL of the diluted HDAC substrate, 5 μL of BSA (1 mg/ml), 5 μL of the HDAC enzyme diluted to the appropriate concentration, and 30 μL of assay buffer were added, and the enzyme reaction was performed at 37° C. for 30 minutes. […] Afterwards, 50 μL of 2×HDAC developer was added to each well. After reacting for 15 minutes at room temperature, the fluorescence values at excitation wavelengths of 350-380 nm and emission wavelengths of 440-460 nm were measured using a microplate reader (Synergy Neo).

[5] = test system: Liver cancer cells Huh-7; assay: Liver cancer cell growth inhibition, CellTiter-Glo Luminescent Cell Viability Assay; format: cell-based; details: various concentrations; day 1; FIG. 6
Procedure: In addition, an analysis of liver cancer growth inhibitory activity was performed. Liver cancer cells Huh-7 cells were dispensed in a 96-well plate at 1×10^4 cells/ml, and after 20 hours, PCI34051, Example 27, and Example 35 were added at various concentrations, and cultured for 24 and 48 hours at 37° C. in a 5% CO2 atmosphere. After culturing, 100 l CellTiter-Glo Luminescent Cell Viability Assay reagent was added and the luminescence signal was measured after 0.5-1 hour. The luminescence signal was measured using IVIS [PerkinElmer, (Waltham, USA)].

- remaining activity at 10 µM [4]: 87.2%
Structure (SMILES): Cc1cc2nc(C(=O)NCCc3c[nH]c4ccc(O)cc34)c(=O)n(C[C@H](O)[C@H](O)[C@H](O)CO)c2cc1C [Example 27, N-(2-(5-hydroxy-1H-indol-3-yl)ethyl)-6,7-dimethyl-3-oxo-4-((2S,3S,4R)-2,3,4,5-tetrahydroxypentyl)-3,4-dihydroquinoxaline-2-carboxamide]
- PC-3 cancer cell viability inhibition rate compared with PCI-34051 [1]: superior to that of PCI-34051
- PC-3 cell viability (in words) [1]: effectively reduced the viability of prostate cancer cells in a concentration- and time-dependent manner
- body weight (in words) [2]: No rapid weight loss was observed
- body weight of the mice (in words) [3]: no rapid weight loss was confirmed
- Huh-7 cell viability (in words) [5]: concentration-dependent inhibition of cancer cell viability
